Patent US20110281804A1, “PEPTIDIC AND PEPTIDOMIMETIC COMPOUNDS FOR REGULATING AUTOPHAGY” (FONDAZIONE SANTA LUCIA, priority 2008, published 2011)

Columns and labels:
AMBRA1-DIC interaction = assay: Co-immunoprecipitation of AMBRA1 with dynein intermediate chain (DIC) after microtubule disruption; type: cell-based, human; conditions: drugs which interfere with microtubule polymerisation
Procedure: To this end, coimmunoprecipitation experiments were performed in 2F cells, using an antibody specific for the dynein intermediate chain (DIC). It was observed that, under control conditions, AMBRA1 is associated with DIC and is therefore part of the wider dynein machinery (FIG. 2b, third lane). […] DIC immunodepletion experiments confirmed that AMBRA1 is still associated with DLC1 after being released from DIC. On the other hand, only a fraction of DLC1 interacts with AMBRA1, since most DLC1 is still present in the complex, where it plays alternative functions (FIG. 2b).
It was then checked whether disruption of the microtubule network could interfere with the dynamics of AMBRA1 binding to the dynein motor complex.
In immunoprecipitation experiments, cells or tissues were lysed in HEMG buffer (25 mM Hepes pH 8.0, 100 mM NaCl, 25 mM MgCl2, 0.5% Triton X-100, 0.1 mM EDTA 10% glycerol) plus protease and phosphatase inhibitors (Protease inhibitor cocktail plus 1mM Sodium Fluoride, 1 mM Sodium orthovanadate, 1 mM Sodium molibdate; Sigma-Aldrich). […]

MyD88 = MyD88 (Homo sapiens, UniProt Q99836); conditions: Loiarro et al., J. Leukocyte Biology 2007; cited from earlier work
HEK293 cells = assay: Autophagy induction by peptides in HEK293 cells, Western blot of LC3 and p62; type: cell-based; conditions: 1-16 hours; for level of autophagy induced by the treatment: peptide 100-200 μM in culture medium, Western blot of LC3 and p62
Excerpt: In order to deregulate the AMBRA1-DLC1 interaction, three peptides (SEQ ID NO:1, SEQ ID NO:2 and SEQ ID NO:3) were selected for their likelihood to maintain the α-helix structure. SEQ ID NO:3 and SEQ ID NO:1 presented substitutions of the neutral residues of leucine into lysine, to increase the charge of the peptides (FIG. 5). The three peptides were synthesized in vitro with the addition of 11 arginine residues at the N-terminus and they were covalently conjugated with the FITC fluorochrome. The arginine residues allow an efficient incorporation of the peptides within the cells, whereas the FITC allows visualization of the peptides inside the cells and permit to monitor their stability upon time. Increasing doses of the peptides, respectively SEQ ID NO:3, SEQ ID NO:1 and SEQ ID NO:2 (100-200 μM) were added to the culture medium of HEK293 cells for increasing time (1-16 hours). The level of autophagy induced by the treatment was monitored by Western blot analyses of known markers of this process, such as LC3 and p62. […] Although limited, this effect is somewhat more desirable than stronger effects, because it avoids massive autophagy that would likely results in cell death in vivo.
Proteins were separated on NuPAGE Bis-Tris gel (Invitrogen) and electroblotted onto nitrocellulose (Protran, Schleicher & Schuell) or PVDF (Millipore) membranes. Blots were incubated with primary antibodies in 5% non-fat dry milk in TBS plus 0,1% Tween20 overnight at 4° C. Detection was achieved using horseradish peroxidase-conjugate secondary antibody (Biorad) and visualised with ECL plus (Amersham Bioscience).

[1] = molecular target: AMBRA1 full length (human, wild type) (UniProt Q9C0C7)
Sequence of AMBRA1 full length (human, wild type) (Q9C0C7 other isoform, or with tags, fused parts or gaps): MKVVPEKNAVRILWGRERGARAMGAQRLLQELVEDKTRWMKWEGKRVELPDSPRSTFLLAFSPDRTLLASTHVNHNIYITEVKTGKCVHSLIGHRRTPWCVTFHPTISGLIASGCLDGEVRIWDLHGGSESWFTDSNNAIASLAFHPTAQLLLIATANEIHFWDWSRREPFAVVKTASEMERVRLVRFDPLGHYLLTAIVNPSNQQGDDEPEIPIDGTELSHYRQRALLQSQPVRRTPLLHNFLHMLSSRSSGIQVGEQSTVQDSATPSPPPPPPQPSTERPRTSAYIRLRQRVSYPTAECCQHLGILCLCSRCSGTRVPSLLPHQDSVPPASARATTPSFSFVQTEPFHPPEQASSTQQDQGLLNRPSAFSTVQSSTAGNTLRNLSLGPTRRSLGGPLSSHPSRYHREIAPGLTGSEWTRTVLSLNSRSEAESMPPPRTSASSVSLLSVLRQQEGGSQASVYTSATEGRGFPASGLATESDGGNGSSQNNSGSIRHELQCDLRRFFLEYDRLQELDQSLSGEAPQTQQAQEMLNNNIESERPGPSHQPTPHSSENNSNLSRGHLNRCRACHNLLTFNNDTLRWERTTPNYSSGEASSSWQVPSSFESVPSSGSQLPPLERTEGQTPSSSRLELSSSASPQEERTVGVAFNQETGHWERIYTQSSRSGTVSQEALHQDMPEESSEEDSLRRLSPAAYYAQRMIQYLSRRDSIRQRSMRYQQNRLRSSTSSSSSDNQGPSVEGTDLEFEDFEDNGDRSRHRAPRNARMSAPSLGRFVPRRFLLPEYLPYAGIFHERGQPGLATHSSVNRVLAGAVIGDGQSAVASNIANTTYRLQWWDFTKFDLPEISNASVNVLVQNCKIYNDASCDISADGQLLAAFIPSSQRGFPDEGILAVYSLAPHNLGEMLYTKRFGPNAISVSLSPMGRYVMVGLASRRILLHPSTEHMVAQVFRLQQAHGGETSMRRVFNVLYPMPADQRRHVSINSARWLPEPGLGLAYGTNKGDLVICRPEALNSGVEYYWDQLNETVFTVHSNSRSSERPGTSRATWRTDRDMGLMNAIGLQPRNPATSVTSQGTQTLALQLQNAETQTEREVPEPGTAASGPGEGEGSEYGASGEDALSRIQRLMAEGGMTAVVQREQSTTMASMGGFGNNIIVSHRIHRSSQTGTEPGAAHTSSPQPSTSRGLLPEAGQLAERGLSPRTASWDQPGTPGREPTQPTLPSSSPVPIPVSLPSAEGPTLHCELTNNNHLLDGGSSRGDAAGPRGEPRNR

Sequence of MyD88 (Q99836 whole entry, species assumed): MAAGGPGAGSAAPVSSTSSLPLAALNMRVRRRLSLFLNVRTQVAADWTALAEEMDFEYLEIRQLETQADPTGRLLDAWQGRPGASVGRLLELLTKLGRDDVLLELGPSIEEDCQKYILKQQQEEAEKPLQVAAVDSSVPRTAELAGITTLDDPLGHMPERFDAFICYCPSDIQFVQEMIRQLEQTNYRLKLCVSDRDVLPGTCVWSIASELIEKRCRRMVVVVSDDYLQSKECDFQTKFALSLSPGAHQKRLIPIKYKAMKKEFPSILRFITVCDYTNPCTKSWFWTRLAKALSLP

Molecule | AMBRA1-DIC interaction (AMBRA1-DIC interaction) | level of autophagy induced by the treatment (HEK293 cells) | further results
COC(=O)Nc1nc2ccc(C(=O)c3cccs3)cc2[nH]1 [Nocodazole] | did not impair |  | 
NC(=O)[C@H]1CCS[C@@H]2C[C@]3(CCCN3C(=O)Cc3ccc(NC(=O)COc4ccc(Cl)cc4Cl)cc3)C(=O)N12 [ST2825] |  |  | activity and specificity of inhibition compared with the original MyD88 inhibitory peptide (MyD88): maintained the same activity and specificity of inhibition
CC[C@]1(O)C[C@@H]2CN(CCc3c([nH]c4ccccc34)[C@@](C(=O)OC)(c3cc4c(cc3OC)N(C)[C@H]3[C@@](O)(C(=O)OC)[C@H](OC(C)=O)[C@]5(CC)C=CCN6CC[C@]43[C@@H]65)C2)C1 [Vinblastine] | did not impair |  | 
SEQ ID NO:1: Peptide with TQT triplet followed by α-helix residues; leucine residues substituted into lysine to increase charge (SQGTQTKAKQK; listed as Homo sapiens) |  | induced an increase in autophagy | p62 protein levels (HEK293 cells; 100-200 μM, Western blot (FIG. 6A)): decrease; shorter isoform of LC3 (HEK293 cells; 100-200 μM, Western blot (data not shown)): increase
SEQ ID NO:3: Peptide selected to maintain α-helix structure; leucine residues substituted into lysine to increase charge (TQTKAKQKQNAETQTER; listed as Homo sapiens) |  | not so effective at the doses used | 
ULK1 wild type, myc-tagged (immunopurified complex) |  |  | in vitro kinase assay (32P labelling, autoradiography) [1]: AMBRA1 is phosphorylated by an ULK1 immunopurified complex
